Experiments:
Type in all cases: cell-based
[1] = test system: antibody production cell line; experiment: Antibody titers of the same antibody preparations (FIG. 2B); settings: same preparations as FIG. 2A, inhibitor 1 mM to 6 mM, compared with GDP-D-rhamnose
[2] = test system: fucosylation of antibodies; experiment: Electropherograms of antibody preparations, glycoform peaks (FIGS. 3A-3C); settings: cells cultured with 6 mM or 10 mM inhibitor vs no inhibitor
Procedure: FIGS. 3A, 3B and 3C show electropherograms of antibody preparations made using cells cultured without a fucosylation inhibitor or in the presence of 6 mM or 10 mM Ac-GDP-D-rhamnose, respectively. Peaks for different glycoforms are indicated, with white boxes for fucosylated species and dark boxes for nonfucosylated species.

[3] = test system: fucosylation of antibodies; experiment: Percentage of nonfucosylated antibodies for antibodies grown in the presence of fucosylation inhibitors (FIG. 2A); settings: antibodies grown in presence of inhibitor at 1 mM to 6 mM
Procedure: The level of fucosylation in an antibody preparation may be determined by any method known in the art, including but not limited to gel electrophoresis, liquid chromatography, and mass spectrometry. Unless otherwise indicated, for the purposes of the present invention, the level of fucosylation in an antibody preparation is determined by hydrophilic interaction chromatography (or hydrophilic interaction liquid chromatography, HILIC), essentially as described at Example 2. To determine the level of fucosylation of an antibody preparation, samples are denatured treated with PNGase F to cleave N-linked glycans, which are then analyzed for fucose content. LC/MS of full-length antibody chains is an alternative method to detect the level of fucosylation of an antibody preparation, but mass spectroscopy is inherently less quantitative.
Nonfucosylated antibody preparations may be analyzed to determine the percentage of afucosylated heavy chains essentially as follows.
Antibodies are first denatured using urea and then reduced using DTT (dithiothreitol). Samples are then digested overnight at 37° C. with PNGase F to remove N-linked glycans. […] The resulting labeled glycans are then resolved on a HILIC column and the eluted fractions are quantified by fluorescence and dried. […] Untreated samples and BKF-treated samples are then analyzed by liquid chromatography. […]

| Molecule | antibody titer (yield) [1] | proportion of nonfucosylated species (glycoforms) [2] | percentage of nonfucosylated antibodies [3] |
| --- | --- | --- | --- |
| Ac-GDP-D-rhamnose | less deleterious effect on titer | increase the proportion of nonfucosylated species | as effective as GDP-D-rhamnose |
| C[C@H]1O[C@H](OP(=O)(O)OP(=O)(O)OC[C@H]2O[C@@H](n3cnc4c(=O)[nH]c(N)nc43)[C@H](O)[C@@H]2O)[C@@H](O)[C@@H](O)[C@@H]1O [GDP-D-rhamnose] |  |  | increasing the percentage of nonfucosylated antibodies |
